“Also recorded” adds a separate entry of the source.
Experiments:
[1] = system: immunogen; experiment: Serum antibody titer to the immunogen after immunity induction (ELISA); type: in vivo, mouse; details: for serum antibody titer to the immunogen, IgM subclass: mouse serum 3 and 7 days after final immunization vs unimmunized, liposome method with Lipid-A, ELISA; for serum antibody titer to the immunogen, IgG subclass: mouse serum after final immunization (7 days where stated) vs unimmunized, only primary additional immunization; for antibody titer in the IgG subclass: antigen not specified, data not shown
Protocol: (§1) Each immunogen was subcutaneously immunized on the first day, and additional immunization was abdominally conducted after two weeks. The blood was collected after 3 days and 7 days from the additional immunization to prepare serums. Antibody titers in the obtained serums were evaluated by ELISA. An immunogen and a glycoprotein containing an objective carbohydrate were used as solid-phased antigens by ELISA, and each was evaluated as an antibody titer to the immunogen and an antibody titer to the objective carbohydrate (FIGS. 1 to 4).
(§2) In order to evaluate subclasses (IgM and IgG) of produced immunoglobulin, evaluation was conducted using antibodies specific to IgM and IgG as secondary antibodies. An antibody titer was evaluated as an activity of peroxidase that is a labeling enzyme of a secondary antibody. TMB was used as a chromogenic substrate of peroxidase, and an intensity of an absorbance at 450 nm after adding 2 N-sulfuric acid after the reaction was evaluated. FIGS. 1 to 3 illustrate antibody titers of IgM subclass, and FIG. 4 illustrates antibody titers of IgG subclass.
Next, each of racemic forms of various immunity inducers (a1, b1 and c1) synthesized in Examples (1-1), (1-2) and (1-3) was dissolved into s lipid containing cholesterol and phospholipid with an adjuvant (Lipid-A), and immunized a mouse being a host generally producing a monoclonal antibody (C3H/HeN strain) in a liposome method (Eur. J. Immunol., 16, 951-956, 1986) to evaluate the immunity inducing ability.
(§3) Each of the immunity inducers was subcutaneously immunized and additionally abdominally immunized after 2 weeks. After the additional immunization, the blood was collected after 3 days and 7 days, and the serum was examined. The antibody titer in the obtained serum was evaluated by ELISA method. In ELISA method, using two types of antigens of an immunogen and a glycoprotein (Fetuin) containing 6′-Sialyl-LacNAc, 3′-Sialyl-LacNAc and LacNAc structures, they were evaluated as an antibody titer to the immunogen and an antibody titer to the objective carbohydrate, respectively.
(§4) In addition, in order to evaluate subclasses (IgM and IgG) of immunoglobulin, an antibody specific to IgM and IgG was used as a secondary antibody to evaluate the subclasses. The antibody titer was evaluated as an activity of peroxidase that is a labeling enzyme of a secondary antibody. TMB was used for a chromogenic substrate of peroxidase, and an intensity of an absorbance at 450 nm after adding 2 N-sulfuric acid after the reaction was evaluated.
Each of the immunity inducers was subcutaneously immunized on the first day, and the carrier compound was additionally abdominally immunized after 2 weeks. After the additional immunization, the blood was collected after 3 days and 7 days to prepare serums. Antibody titers of the obtained serums were evaluated by ELISA method. In ELISA method, using two types of antigens of an immunogen and a glycoprotein (Fetuin) containing a 6′-Sialyl-LacNAc structure, they were evaluated as an antibody titer to the immunogen and an antibody titer to the objective sugar chain, respectively. In addition, in order to evaluate subclasses (IgM and IgG) of produced immunoglobulin, an antibody specific to IgM and IgG was used as the secondary antibody to evaluate the subclasses. The antibody titer was evaluated as an activity of peroxidase that is a labeling enzyme of the secondary antibody. TMB was used for a chromogenic substrate of peroxidase, and an intensity of an absorbance at 450 nm after adding 2 N-sulfuric acid after the reaction was evaluated. […] Among the evaluated compounds, the antibody titer of a2 was the lowest, and the activity of a3-1 was the highest in the examined compounds.

[2] = system: glycoprotein (Fetuin); experiment: Serum antibody titer to glycoprotein (Fetuin) after immunity induction (ELISA); type: in vivo; details: mouse serum 3 and 7 days after final immunization vs unimmunized; Fetuin-a used as antigen for c1
Protocol: as §1
as §2, with “subclass. […]” for “subclass.”
as §3, with “After the additional immunization, the blood was collected after 3 days and 7 days, and the serum was examined.” left out
as §4, with “evaluated. […]” for “evaluated.”

[3] = system: glycoprotein (HL60); experiment: Serum antibody titer to HL60 glycoprotein after immunity induction (ELISA); type: in vivo, mouse
Protocol: FIG. 9 illustrates serum antibody titers after immunity inductions with sLe^X-C12L and Le^X-C12L: after immunizing a mouse using each of the sLe^X-C12L and Le^X-C12L compounds as an immunity inducer, an antibody titer of each subclass (IgM and IgG) of immunoglobulin in the serum was evaluated by ELISA. A and B show serum antibody titers of a mouse immunized with sLe^X-C12L, C and D show serum antibody titers of a mouse immunized with Le^X-C12. A and C: Evaluations on an immunogen used as an antigen by ELISA. B: Evaluation on a cell extract (HL60) containing a glycoprotein including an epitope of a target carbohydrate used as an antigen by ELISA. […]
as §1, with “The blood was collected after 3 days and 7 days from the additional immunization to prepare serums.” left out
In order to evaluate subclasses (IgM and IgG) of produced immunoglobulin, evaluation was conducted using antibodies specific to IgM and IgG as secondary antibodies. An antibody titer was evaluated as an activity of peroxidase that is a labeling enzyme of a secondary antibody. […]

[4] = system: glycoprotein (Fetuin) containing a 6′-Sialyl-LacNAc (CDw75) carbohydrate structure; details: Non Patent Literature 8, cited from earlier work

Row | Molecule | serum antibody titer to the immunogen, IgM subclass [1] | serum antibody titer to the immunogen, IgG subclass [1] | antibody titer in the IgG subclass [1] | serum antibody titer to glycoprotein (Fetuin), IgM subclass [2] | further results
1 | CCCCCCCCCCCCC/C=C/[C@@H](O)C(CO[C@@H]1OC(CO)[C@@H](O[C@@H]2OC(CO)[C@H](O[C@H]3OC(CO)[C@H](O)C(O[C@@H]4OC(CO)[C@H](O)C(O)C4NC(C)=O)C3O)C(O)C2O)C(O)C1O)NC(=O)CCCCCCCCCCCCCCCCCCCCCCC (stereo partly drawn) [Globoside, GalNAcβ1,3Galα1,4Galβ1,4Glcβ1-Cer, reference compound] | significantly increased | not confirmed | – | – | serum antibody titer to the immunogen, IgM subclass ([1]; listed as globoside): significant increase of the antibody titer
2 | CCCCCCCCCCCCCCCCCC(=O)NC(CCCCCCCCCC)CO[C@@H]1OC(CO)[C@@H](O[C@@H]2OC(CO[C@]3(C(=O)O)CC(O)[C@@H](NC(C)=O)C([C@H](O)[C@H](O)CO)O3)[C@H](O)C(O)C2O)C(O)C1NC(C)=O (stereo partly drawn) [a1, Siaα2,6Galβ1,4GlcNAcβ1-CerA] | significantly increased; also recorded: significant increases of antibody titers | – | not observed | significantly increased; also recorded: significant increases of antibody titers | –
3 | CCCCCCCCCCC(CO[C@@H]1OC(CO)[C@@H](O[C@@H]2OC(CO[C@]3(C(=O)O)CC(O)[C@@H](NC(C)=O)C([C@H](O)[C@H](O)CO)O3)[C@H](O)C(O)C2O)C(O)C1NC(C)=O)NC(C)=O (stereo partly drawn) [a2, reference compound] | significant increases of antibody titers | – | – | significant increases of antibody titers | rank of antibody titer / activity among the evaluated compounds ([1]; a1, a2, a3-1, a3-2, a3-3 compared, IgM subclass): lowest
4 | CCCCCCCCCCCCCCCCCCCCCCCC(=O)N[C@@H](CCCCCCCCCC)CO[C@@H]1O[C@H](CO)[C@@H](O[C@@H]2O[C@H](CO)[C@H](O)[C@H](O[C@]3(C(=O)O)C[C@H](O)[C@@H](NC(C)=O)[C@H]([C@H](O)[C@H](O)CO)O3)[C@H]2O)[C@H](O[C@@H]2O[C@@H](C)[C@@H](O)[C@@H](O)[C@@H]2O)[C@H]1NC(C)=O [sLe^X-C12L, Siaα2,3Galβ1,4(Fucα1,3)GlcNAcβ1-C12L] | significant increases of antibody titers | tendency of an increase of an antibody titer | – | – | serum antibody titer to glycoprotein (HL60), IgG subclass ([3]; only primary additional immunization): significant increase of an antibody titer; serum antibody titer to glycoprotein (HL60), IgM subclass ([3]; serums after 3 days and 7 days from the immunization): significant increases of antibody titers
5 | Siaα2,3-Galβ1,4GlcNAcβ1-CerA [b1] | significantly increased; also recorded: significant increases of antibody titers | – | not observed | significantly increased; also recorded: significant increases of antibody titers | –
6 | phosphatidylethanolamine | – | – | – | – | appearance ratio of positive clones, conventional technique ([4]; 581 wells): 1.3%; positive clones, conventional technique ([4]; out of selected 581 wells): 8 wells
